In the NIST ThermoML archive (doi:10.1021/acs.jced.5b00662):
“And” between values parts separate entries of the source, which are not always exact repeats. Equal values may be shown once. Numbers after ± are expanded uncertainties.

Experiments:
[1] = refractive index (Na D-line) (dimensionless); details: 101.33 kPa, Liquid, Standard Abbe refractometry
[2] = 101.33 kPa, Liquid; for speed of sound: Sing-around technique in a fixed-path interferometer; for mass density: Vibrating tube method; for viscosity: Concentric cylinders viscometry

COCCOCCOC [2,5,8-trioxanonane]
Details	mass density, [2]	refractive index, [1]	speed of sound, [2] [m/s]	viscosity, [2] [mPa·s]
283.15 K	953.7 ± 1.1 kg/m3	1.41249 ± 0.00066	1340.7 ± 2	–
288.15 K	950.2 ± 1.1 kg/m3 and 948.7 ± 1.1 kg/m3	1.4102 ± 0.00066	1320 ± 2	1.161 ± 0.048
293.15 K	945.2 ± 1.1 kg/m3 and 943.8 ± 1.1 kg/m3	1.40802 ± 0.00066	1299.9 ± 2	1.081 ± 0.045
298.15 K	938.8 ± 1.1 kg/m3 and 940.2 ± 1.1 kg/m3	1.40579 ± 0.00066	1280 ± 2	1.011 ± 0.042
303.15 K	933.8 ± 1.1 kg/m3 and 935.2 ± 1.1 kg/m3	1.40359 ± 0.00066	1260.1 ± 2	0.942 ± 0.039
308.15 K	928.8 ± 1.1 kg/m3 and 930.2 ± 1.1 kg/m3	–	1240.3 ± 2	0.879 ± 0.036
313.15 K	923.8 ± 1.1 kg/m3 and 925.2 ± 1.1 kg/m3	1.39921 ± 0.00066	1220.6 ± 2	0.825 ± 0.034
318.15 K	920.2 ± 1.1 kg/m3	–	–	0.767 ± 0.032
323.15 K	913.7 ± 1.1 kg/m3 and 915.2 ± 1.1 kg/m3	1.3949 ± 0.00066	1181.7 ± 2	0.718 ± 0.03
328.15 K	910.1 ± 1.1 kg/m3	–	–	0.674 ± 0.028
333.15 K	903.6 ± 1.1 kg/m3 and 905 ± 1.1 kg/m3	1.3905 ± 0.00066	1143.4 ± 2	0.633 ± 0.026
338.15 K	899.9 ± 1.1 kg/m3	–	–	0.599 ± 0.025
343.15 K	894.8 ± 1.1 kg/m3 and 893.4 ± 1.1 kg/m3	1.38623 ± 0.00066	1105.8 ± 2	0.566 ± 0.024
348.15 K	889.7 ± 1.1 kg/m3	–	–	0.537 ± 0.022
353.15 K	884.6 ± 1.1 kg/m3	1.38178 ± 0.00066	–	0.505 ± 0.021
358.15 K	879.4 ± 1.1 kg/m3	–	–	0.486 ± 0.02
363.15 K	874.2 ± 1.1 kg/m3	–	–	0.464 ± 0.02
368.15 K	869 ± 1.1 kg/m3	–	–	0.444 ± 0.019
373.15 K	863.8 ± 1.1 kg/m3	–	–	0.441 ± 0.019

COCCOCCO [2-(2-methoxyethoxy)ethanol]
Details	mass density, [2]	refractive index, [1]	speed of sound, [2] [m/s]	viscosity, [2] [mPa·s]
283.15 K	1028.6 ± 2 kg/m3	1.42914 ± 0.00061	1467.7 ± 1.6	–
288.15 K	1025.3 ± 2 kg/m3 and 1024.2 ± 2 kg/m3	1.42723 ± 0.00061	1450.2 ± 1.6	4.514 ± 0.18
293.15 K	1021 ± 2 kg/m3 and 1019.8 ± 2 kg/m3	1.42498 ± 0.00061	1432.7 ± 1.6	3.963 ± 0.16
298.15 K	1015.4 ± 2 kg/m3 and 1016.3 ± 2 kg/m3	1.4239 ± 0.00061	1415.4 ± 1.6	3.403 ± 0.14
303.15 K	1011 ± 2 kg/m3 and 1011.9 ± 2 kg/m3	1.42174 ± 0.00061	1398.1 ± 1.6	3 ± 0.12
308.15 K	1006.6 ± 2 kg/m3 and 1007.4 ± 2 kg/m3	–	1380.9 ± 1.6	2.666 ± 0.11
313.15 K	1002.1 ± 2 kg/m3 and 1003 ± 2 kg/m3	1.41733 ± 0.00061	1363.9 ± 1.5	2.373 ± 0.096
318.15 K	998.8 ± 2 kg/m3	–	–	2.148 ± 0.087
323.15 K	993.2 ± 2 kg/m3 and 994.3 ± 2 kg/m3	1.41368 ± 0.00061	1329.7 ± 1.5	1.946 ± 0.079
328.15 K	989.8 ± 2 kg/m3	–	–	1.772 ± 0.072
333.15 K	984.1 ± 2 kg/m3 and 985.3 ± 2 kg/m3	1.4101 ± 0.00061	1296.1 ± 1.5	1.606 ± 0.065
338.15 K	981 ± 2 kg/m3	–	–	1.489 ± 0.061
343.15 K	976.5 ± 2 kg/m3 and 975 ± 2 kg/m3	1.40635 ± 0.00061	1262.7 ± 1.5	1.372 ± 0.056
348.15 K	971.8 ± 2 kg/m3	–	–	1.268 ± 0.052
353.15 K	967.2 ± 2 kg/m3	1.40241 ± 0.00061	–	1.155 ± 0.047
358.15 K	962.5 ± 2 kg/m3	–	–	1.094 ± 0.045
363.15 K	957.9 ± 2 kg/m3	–	–	1.019 ± 0.042
368.15 K	953.1 ± 2 kg/m3	–	–	0.95 ± 0.039
373.15 K	948.5 ± 2 kg/m3	–	–	0.877 ± 0.036

CCOCCO [2-ethoxyethan-1-ol]
Details	mass density, [2]	refractive index, [1]	speed of sound, [2] [m/s]	viscosity, [2] [mPa·s]
283.15 K	941.2 ± 2 kg/m3	1.4149 ± 0.00061	1360.6 ± 1.5	–
288.15 K	936.8 ± 2 kg/m3 and 936.7 ± 2 kg/m3	1.4125 ± 0.00061	1342 ± 1.5	2.314 ± 0.094
293.15 K	932.3 ± 2 kg/m3 and 932.2 ± 2 kg/m3	1.41024 ± 0.00061	1323.9 ± 1.5	2.066 ± 0.084
298.15 K	927.6 ± 2 kg/m3 and 927.7 ± 2 kg/m3	1.40803 ± 0.00061	1305.7 ± 1.5	1.845 ± 0.075
303.15 K	923.1 ± 2 kg/m3	1.40613 ± 0.00061	1286.7 ± 1.5	1.661 ± 0.067
308.15 K	918.5 ± 2 kg/m3	–	1268.6 ± 1.5	1.503 ± 0.061
313.15 K	913.8 ± 2 kg/m3 and 913.9 ± 2 kg/m3	1.4018 ± 0.00061	1250.2 ± 1.5	1.365 ± 0.056
318.15 K	909.3 ± 2 kg/m3	–	–	1.247 ± 0.051
323.15 K	904.5 ± 2 kg/m3 and 904.6 ± 2 kg/m3	1.39691 ± 0.00061	1213.8 ± 1.5	1.143 ± 0.047
328.15 K	899.9 ± 2 kg/m3	–	–	1.051 ± 0.043
333.15 K	895 ± 2 kg/m3 and 895.1 ± 2 kg/m3	1.39271 ± 0.00061	1178.5 ± 1.5	0.962 ± 0.039
338.15 K	890.4 ± 2 kg/m3	–	–	0.895 ± 0.037
343.15 K	885.5 ± 2 kg/m3 and 885.2 ± 2 kg/m3	1.38849 ± 0.00061	1143.7 ± 1.5	0.829 ± 0.034
348.15 K	880.7 ± 2 kg/m3	–	–	0.77 ± 0.032
353.15 K	875.8 ± 2 kg/m3	1.3838 ± 0.00061	–	0.725 ± 0.03
358.15 K	871 ± 2 kg/m3	–	–	0.666 ± 0.027
363.15 K	866.1 ± 2 kg/m3	–	–	0.623 ± 0.026
368.15 K	861.2 ± 2 kg/m3	–	–	0.584 ± 0.024
373.15 K	856.3 ± 2 kg/m3	–	–	0.518 ± 0.021
